# According to ChEMBL document CHEMBL4251646, “Improved antibacterial activity of a marine peptide-N2 against intracellular Salmonella typhimurium by conjugating with cell-penetrating peptides-bLFcin6/Tat11” (Eur J Med Chem, 2018):
# Calls of active or inactive are those of the source. The rule behind the calls is not given here.
# Tests used:
# Salmonella typhimurium [1] = test: Bactericidal activity against Salmonella typhimurium ATCC 14028 at 0.125 to 1 times MIC after 24 hrs by dose-kill assay; assay type: functional, organism-based; settings: Salmonella enterica subsp. enterica serovar Typhimurium
# Salmonella typhimurium [2] = test: Bactericidal activity against Salmonella typhimurium ATCC 14028 at 1 to 2 times MIC after 2 hrs by time-kill assay; assay type: functional, organism-based; settings: Salmonella enterica subsp. enterica serovar Typhimurium
# Salmonella typhimurium [3] = test: Bactericidal activity against Salmonella typhimurium ATCC 14028 at 10 uM up to 9 hrs; assay type: functional, organism-based; settings: Salmonella enterica subsp. enterica serovar Typhimurium
# [4] = Drug uptake in mouse RAW264.7 cells at 2 uM using FITC-labeled test compound at 4 degC after 2 hrs in presence of lipid raft disruptor MbetaCD by trypan blue staining-based flow cytometry; assay type: ADME, cell-based; settings: raw264.7, 2 h
# [5] = Drug uptake in mouse RAW264.7 cells at 2 uM using FITC-labeled test compound after 2 hrs at 4 degC in presence of microtubule polymerization inhibitor nocodazole by trypan blue staining-based flow cytometry; assay type: ADME, cell-based; settings: raw264.7, 2 h
# [6] = Drug uptake in cytosol of mouse RAW264.7 cells at 5 uM using FITC-labeled test compound after 5 hrs by Hoechst 33342/FM 4-64 staining-based confocal microscopic analysis; assay type: ADME, subcellular
# [7] = Drug uptake in mouse RAW264.7 cells at 5 uM using FITC-labeled test compound after 2 hrs by flow cytometry; assay type: ADME, cell-based; settings: raw264.7, 2 h
# [8] = Drug uptake in mouse RAW264.7 cells at 5 uM using FITC-labeled test compound after 0.5 hrs by flow cytometry; assay type: ADME, cell-based; settings: raw264.7, 0.5 h
# [9] = Drug internalization in mouse RAW264.7 cells using FITC-labeled test compound by flow cytometry; assay type: ADME, cell-based
# [10] = Drug internalization in mouse RAW264.7 cells at 1 uM using FITC-labeled test compound after 0.5 hrs by flow cytometry; assay type: ADME, cell-based; settings: raw264.7, 0.5 h
# [11] = Drug uptake in mouse RAW264.7 cells at 2 uM using FITC-labeled test compound at 4 degC after 2 hrs in presence of macropinocytosis inhibitor amiloride by trypan blue staining-based flow cytometry; assay type: ADME, cell-based; settings: raw264.7, 2 h
# [12] = Cytotoxicity against mouse RAW264.7 cells assessed as cell survival at 100 uM after 8 hrs by MTT assay; assay type: cell-based; settings: read-out: Survival
# [13] = Drug uptake in mouse RAW264.7 cells at 0.5 uM using FITC-labeled test compound at 4 degC after 2 hrs by flow cytometry; assay type: ADME, cell-based; settings: raw264.7, 2 h
# [14] = Drug internalization in mouse RAW264.7 cells at 1 uM using FITC-labeled test compound after 2 hrs by flow cytometry; assay type: ADME, cell-based; settings: raw264.7, 2 h
# [15] = Drug uptake in mouse RAW264.7 cells at 2 uM using FITC-labeled test compound at 4 degC after 2 hrs in presence of clathrin-mediated endocytosis inhibitor chlorpromazine by trypan blue staining-based flow cytometry; assay type: ADME, cell-based; settings: raw264.7, 2 h
# Salmonella typhimurium [16] = test: Bactericidal activity against Salmonella typhimurium ATCC 14028 at MIC up to 6 hrs by time-kill assay; assay type: functional, organism-based; settings: Salmonella enterica subsp. enterica serovar Typhimurium
# Salmonella typhimurium [17] = test: Antibacterial activity against Salmonella typhimurium ATCC 14028 at pH 7 after 16 to 18 hrs by broth microdilution method; assay type: functional, Salmonella enterica subsp. enterica serovar Typhimurium; settings: Salmonella enterica
# Salmonella typhimurium [18] = test: Bactericidal activity against Salmonella typhimurium ATCC 14028 infected in mouse RAW264.7 cells assessed as log reduction in intracellular bacterial load at 5 uM after 10 hrs in presence of gentamycin; assay type: functional, Salmonella enterica subsp. enterica serovar Typhimurium
# Salmonella typhimurium [19] = test: Antibacterial activity against Salmonella typhimurium ATCC 14028 assessed as survival at 10 uM after 3 hrs by broth microdilution method; assay type: functional, Salmonella enterica subsp. enterica serovar Typhimurium
# Salmonella typhimurium [20] = test: Bactericidal activity against Salmonella typhimurium ATCC 14028 at 0.03125 to 4 times MIC after 24 hrs by dose-kill assay; assay type: functional, organism-based; settings: Salmonella enterica subsp. enterica serovar Typhimurium
# Salmonella typhimurium [21] = test: Bactericidal activity against Salmonella typhimurium ATCC 14028 infected in mouse RAW264.7 cells assessed as log reduction in intracellular bacterial load at 10 uM after 10 hrs in presence of gentamycin; assay type: functional, Salmonella enterica subsp. enterica serovar Typhimurium
# Salmonella typhimurium [22] = test: Bactericidal activity against Salmonella typhimurium ATCC 14028 at 10 uM within 3 to 9 hrs; assay type: functional, Salmonella enterica subsp. enterica serovar Typhimurium
# Salmonella typhimurium [23] = test: Antibacterial activity against Salmonella typhimurium ATCC 14028 at pH 5 after 16 to 18 hrs by broth microdilution method; assay type: functional, Salmonella enterica subsp. enterica serovar Typhimurium; settings: Salmonella enterica
compound,measurement,setting,value
CC(C)[C@@H]1NC(=O)[C@H](C)NC(=O)[C@H](CC(N)=O)NC(=O)[C@H](CCCNC(=N)N)NC(=O)[C@H](Cc2ccc(O)cc2)NC(=O)[C@H](C(C)C)NC(=O)[C@@H]2CSSC[C@@H](NC(=O)[C@H](C(C)C)NC(=O)[C@H](CCCNC(=N)N)NC1=O)C(=O)N[C@@H](Cc1cnc[nH]1)C(=O)N[C@@H](CCCNC(=N)N)C(=O)N[C@@H](CCCNC(=N)N)C(=O)N[C@H](C(=O)N[C@@H](CC(N)=O)C(=O)O)CSSC[C@H](NC(=O)[C@H](Cc1ccccc1)NC(=O)[C@H](C)NC(=O)[C@H](CCCNC(=N)N)NC(=O)[C@H](Cc1c[nH]c3ccccc13)NC(=O)[C@H](CCC(N)=O)NC(=O)[C@H](Cc1c[nH]c3ccccc13)NC(=O)[C@H](CCCNC(=N)N)NC(=O)[C@@H](N)CCCNC(=N)N)C(=O)N[C@@H](Cc1c[nH]c3ccccc13)C(=O)N[C@@H](CC(N)=O)C(=O)N[C@@H](C(C)C)C(=O)N2,Activity,Salmonella typhimurium [1],Active
same,Activity,Salmonella typhimurium [2],Active
same,Activity,Salmonella typhimurium [3],inactive
CC(C)[C@@H]1NC(=O)[C@H](C)NC(=O)[C@H](CC(N)=O)NC(=O)[C@H](CCCNC(=N)N)NC(=O)[C@H](Cc2ccc(O)cc2)NC(=O)[C@H](C(C)C)NC(=O)[C@@H]2CSSC[C@H](NC(=O)[C@H](C(C)C)NC(=O)[C@H](CCCNC(=N)N)NC1=O)C(=O)N[C@@H](Cc1cnc[nH]1)C(=O)N[C@@H](CCCNC(=N)N)C(=O)N[C@@H](CCCNC(=N)N)C(=O)N[C@H](C(=O)N[C@@H](CC(N)=O)C(=O)O)CSSC[C@H](NC(=O)[C@H](Cc1ccccc1)NC(=O)[C@H](C)NC(=O)[C@H](CCCNC(=N)N)NC(=O)[C@H](Cc1c[nH]c3ccccc13)NC(=O)[C@H](CCC(N)=O)NC(=O)[C@H](Cc1c[nH]c3ccccc13)NC(=O)[C@H](CCCNC(=N)N)NC(=O)[C@@H](N)CCCNC(=N)N)C(=O)N[C@@H](Cc1c[nH]c3ccccc13)C(=O)N[C@@H](CC(N)=O)C(=O)N[C@@H](C(C)C)C(=O)N2,Drug uptake,[4],Not Active
same,Drug uptake,[5],Not Active
same,Drug uptake,[6],Active
same,Drug uptake,[7],96.3%
same,Drug uptake,[8],70.9%
same,Drug uptake,[9],Dose-dependent effect and Tde
same,Drug uptake,[10],28.3%
same,Drug uptake,[11],Not Active
same,"viability at 8 h, 100 µM",[12],86.5%
same,Drug uptake,[13],17.9%
same,Drug uptake,[14],57.2%
same,Drug uptake,[15],Not Active
CC(C)[C@@H]1NC(=O)[C@H](C)NC(=O)[C@H](CC(N)=O)NC(=O)[C@H](CCCNC(=N)N)NC(=O)[C@H](Cc2ccc(O)cc2)NC(=O)[C@H](C(C)C)NC(=O)[C@@H]2CSSC[C@@H](NC(=O)[C@H](C(C)C)NC(=O)[C@@H](CCCNC(=N)N)NC1=O)C(=O)N[C@@H](Cc1cnc[nH]1)C(=O)N[C@H](CCCNC(=N)N)C(=O)N[C@@H](CCCNC(=N)N)C(=O)N[C@@H](C(=O)N[C@@H](CC(N)=O)C(=O)O)CSSC[C@H](NC(=O)[C@H](Cc1ccccc1)NC(=O)[C@H](C)NC(=O)[C@H](CCCNC(=N)N)NC(=O)[C@H](CCCNC(=N)N)NC(=O)[C@H](CCCNC(=N)N)NC(=O)[C@H](CCC(N)=O)NC(=O)[C@H](CCCNC(=N)N)NC(=O)[C@H](CCCNC(=N)N)NC(=O)[C@H](CCCCN)NC(=O)[C@H](CCCCN)NC(=O)[C@H](CCCNC(=N)N)NC(=O)CNC(=O)[C@@H](N)Cc1ccc(O)cc1)C(=O)N[C@@H](Cc1c[nH]c3ccccc13)C(=O)N[C@H](CC(N)=O)C(=O)N[C@@H](C(C)C)C(=O)N2,Activity,Salmonella typhimurium [1],Active
same,Activity,Salmonella typhimurium [16],Active
same,Activity,Salmonella typhimurium [2],Active
same,Activity,Salmonella typhimurium [3],inactive
CC(C)[C@@H]1NC(=O)[C@H](C)NC(=O)[C@H](CC(N)=O)NC(=O)[C@H](CCCNC(=N)N)NC(=O)[C@H](Cc2ccc(O)cc2)NC(=O)[C@H](C(C)C)NC(=O)[C@@H]2CSSC[C@H](NC(=O)[C@H](C(C)C)NC(=O)[C@H](CCCNC(=N)N)NC1=O)C(=O)N[C@@H](Cc1cnc[nH]1)C(=O)N[C@@H](CCCNC(=N)N)C(=O)N[C@@H](CCCNC(=N)N)C(=O)N[C@H](C(=O)N[C@@H](CC(N)=O)C(=O)O)CSSC[C@H](NC(=O)[C@H](Cc1ccccc1)NC(=O)[C@H](C)NC(=O)[C@H](CCCNC(=N)N)NC(=O)[C@H](CCCNC(=N)N)NC(=O)[C@H](CCCNC(=N)N)NC(=O)[C@H](CCC(N)=O)NC(=O)[C@H](CCCNC(=N)N)NC(=O)[C@H](CCCNC(=N)N)NC(=O)[C@H](CCCCN)NC(=O)[C@H](CCCCN)NC(=O)[C@H](CCCNC(=N)N)NC(=O)CNC(=O)[C@@H](N)Cc1ccc(O)cc1)C(=O)N[C@@H](Cc1c[nH]c3ccccc13)C(=O)N[C@@H](CC(N)=O)C(=O)N[C@@H](C(C)C)C(=O)N2,Drug uptake,[4],Not Active
same,Drug uptake,[5],Not Active
same,Drug uptake,[6],Active
same,Drug uptake,[7],99.9%
same,Drug uptake,[8],99.9%
same,Drug uptake,[9],Dose-dependent effect and Tde
same,Drug uptake,[10],93.5%
same,Drug uptake,[11],Not Active
same,"viability at 8 h, 100 µM",[12],90.2%
same,Drug uptake,[13],8.3%
same,Drug uptake,[14],99.8%
same,Drug uptake,[15],Not Active
O=C(O)c1cn(C2CC2)c2cc(N3CCNCC3)c(F)cc2c1=O [CIPROFLOXACIN],MIC,Salmonella typhimurium [17],0.05 µM
same,log(activity),Salmonella typhimurium [18],2.67
same,Survival,Salmonella typhimurium [19],5.5 ×10³ CFU/ml
same,Activity,Salmonella typhimurium [20],Active
same,log(activity),Salmonella typhimurium [21],3.26
same,Activity,Salmonella typhimurium [22],98.11 - 99.99%
H-RRWQWR-OH,MIC,Salmonella typhimurium [17],> 80 µM
CC(C)[C@@H]1NC(=O)[C@H](C)NC(=O)[C@H](CC(N)=O)NC(=O)[C@H](CCCNC(=N)N)NC(=O)[C@H](Cc2ccc(O)cc2)NC(=O)[C@H](C(C)C)NC(=O)[C@@H]2CSSC[C@H](NC(=O)[C@H](C(C)C)NC(=O)[C@H](CCCNC(=N)N)NC1=O)C(=O)N[C@@H](Cc1cnc[nH]1)C(=O)N[C@@H](CCCNC(=N)N)C(=O)N[C@@H](CCCNC(=N)N)C(=O)N[C@H](C(=O)N[C@@H](CC(N)=O)C(=O)O)CSSC[C@H](NC(=O)[C@H](Cc1ccccc1)NC(=O)[C@H](C)N)C(=O)N[C@@H](Cc1c[nH]c3ccccc13)C(=O)N[C@@H](CC(N)=O)C(=O)N[C@@H](C(C)C)C(=O)N2,MIC,Salmonella typhimurium [17],0.78 µM
same,Survival,Salmonella typhimurium [19],2.3 ×10⁵ CFU/ml
same,MIC,Salmonella typhimurium [23],25 µM
same,Activity,Salmonella typhimurium [22],22.41 - 69.74%
CC(C)[C@@H]1NC(=O)[C@H](C)NC(=O)[C@H](CC(N)=O)NC(=O)[C@H](CCCNC(=N)N)NC(=O)[C@H](Cc2ccc(O)cc2)NC(=O)[C@H](C(C)C)NC(=O)[C@@H]2CSSC[C@H](NC(=O)[C@H](C(C)C)NC(=O)[C@H](CCCNC(=N)N)NC1=O)C(=O)N[C@@H](Cc1cnc[nH]1)C(=O)N[C@@H](CCCNC(=N)N)C(=O)N[C@@H](CCCNC(=N)N)C(=O)N[C@@H](C(=O)N[C@@H](CC(N)=O)C(=O)O)CSSC[C@H](NC(=O)[C@H](Cc1ccccc1)NC(=O)[C@H](C)N)C(=O)N[C@@H](Cc1c[nH]c3ccccc13)C(=O)N[C@@H](CC(N)=O)C(=O)N[C@@H](C(C)C)C(=O)N2,Activity,Salmonella typhimurium [1],Active
same,Activity,Salmonella typhimurium [3],inactive
N=C(N)NCCC[C@H](NC(=O)[C@H](CCCNC(=N)N)NC(=O)[C@H](CCCNC(=N)N)NC(=O)[C@H](CCC(N)=O)NC(=O)[C@H](CCCNC(=N)N)NC(=O)[C@H](CCCNC(=N)N)NC(=O)[C@H](CCCCN)NC(=O)[C@H](CCCCN)NC(=O)[C@H](CCCNC(=N)N)NC(=O)CNC(=O)[C@@H](N)Cc1ccc(O)cc1)C(=O)O,MIC,Salmonella typhimurium [17],> 80 µM
